Converted amounts (≈) assume the structure as drawn.
Assays:
[1] = tested on: Escherichia coli (E. coli) BAS849; experiment: Antibacterial activity, microbroth dilution MIC (Table 1); format: cell-based; conditions: microbroth dilution, super sensitive Gram-negative E. coli BAS849, read-out: MIC, BAS849
Outline: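 Each strain is exposed to test compound in a microbroth dilution series; visible growth is scored macroscopically, and the lowest growth-free concentration is recorded as MIC in μg/mL.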

[2] = tested on: Staphylococcus aureus (S. aureus) 29213; experiment: as above; format: cell-based; conditions: microbroth dilution, Gram-positive S. aureus 29213, read-out: MIC, 29213
Outline: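 Values are MICs (μg/mL): the smallest drug amount at which macroscopically visible bacterial growth is absent under assay conditions, from a microdilution method in broth.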

E. coli 25922 = experiment: as above; format: cell-based, Escherichia coli; conditions: Escherichia coli; microbroth dilution; control Gram-negative E. coli 25922 strain; read-out: MIC, 25922
Outline: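 MIC (μg/mL) is taken as the lowest concentration with no macroscopically visible growth. Strains tested by microbroth dilution: Gram-positive S. aureus 29213, control Gram-negative E. coli 25922, and super-sensitive E. coli BAS849.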

E. coli LZ3111 = experiment: Antibacterial activity, MIC, quinolone resistant strain (Table 2); format: cell-based; conditions: Escherichia coli, LZ3111, read-out: MIC LZ3111
Outline: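 Microbroth dilution method; MIC (μg/mL) is the lowest drug concentration preventing macroscopically visible growth under test conditions.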

[3] = tested on: Acinetobacter baumannii (A. baumannii) BAA747; experiment: Antibacterial activity, MIC (Table 4); format: cell-based; conditions: A. baumannii BAA747, read-out: MIC, BAA747
Outline: (§1)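 Activity was measured by microbroth dilution. The MIC, in μg/mL, is the lowest drug concentration that prevents macroscopically visible growth under the test conditions. The resistant strains are multi-drug resistant clinical isolates.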

[4] = tested on: Klebsiella pneumoniae (K. pneumoniae) 35657; experiment: Antibacterial activity, MIC (Table 4); format: cell-based; conditions: K. pneumoniae 35657, read-out: MIC, 35657
Outline: as §1

A. baumannii MXX2240 = experiment: Antibacterial activity, MIC, resistant strain (Table 4); format: cell-based; conditions: Acinetobacter baumannii, MXX2240; resistant A. baumannii MMX2240, multi-drug resistant clinical isolate; read-out: MIC, MMX2240
Outline: as §1

K. pneumoniae MXX1232 = experiment: as above; format: cell-based; conditions: Klebsiella pneumoniae, MXX1232; resistant K. pneumoniae MMX1232, multi-drug resistant clinical isolate; read-out: MIC, MMX1232
Outline: as §1

[5] = tested on: Pseudomonas aeruginosa (P. aeruginosa) 27853; experiment: Antibacterial activity, MIC (Table 5); format: cell-based; conditions: P. aeruginosa 27853, read-out: MIC, 27853
Outline: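 Activity was measured by microbroth dilution. The MIC, in μg/mL, is the lowest drug concentration that prevents macroscopically visible growth under the test conditions.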

Row | Structure (SMILES) | MIC [1] [µg/mL] | MIC [2] [µg/mL] | MIC (E. coli 25922) [µg/mL] | MIC (E. coli LZ3111) [µg/mL] | MIC [3] [µg/mL] | MIC [4] [µg/mL] | MIC (A. baumannii MXX2240) [µg/mL] | MIC (K. pneumoniae MXX1232) [µg/mL] | MIC [5] [µg/mL]
1 | CCc1cc(C(=O)O)c(=O)[nH]c1-c1ccc2ncnn2c1.Cl [Cpd 49, 6-([1,2,4]triazolo[1,5-a]pyridin-6-yl)-5-ethyl-2-oxo-1,2-dihydropyridine-3-carboxylic acid hydrochloride] | 12.5 to 150 | 12.5 to 150 | 12.5 to 150 | 12.5 to 150 | 12.5 to 150 | 12.5 to 150 | 12.5 to 150 | 12.5 to 150 | 12.5 to 150
2 | Cc1c(-c2ccc3[nH]ccc3c2)[nH]c(=O)c(C(=O)O)c1O [Cpd 426, 4-hydroxy-6-(1H-indol-5-yl)-5-methyl-2-oxo-1,2-dihydropyridine-3-carboxylic acid] | 3.5 to 12.5 (≈ 12.3 to 44 µM) | 12.5 to 150 (≈ 44 to 528 µM) | 12.5 to 150 (≈ 44 to 528 µM) | < 1 | 12.5 to 150 (≈ 44 to 528 µM) | 12.5 to 150 (≈ 44 to 528 µM) | < 1 | 12.5 to 150 (≈ 44 to 528 µM) | 12.5 to 150 (≈ 44 to 528 µM)
3 | CCc1c(-c2ccc3c4c([nH]c3c2)CN(C(C)C)CC4)[nH]c(=O)c(C(=O)O)c1O [Cpd 449, 5-ethyl-4-hydroxy-6-(2-isopropyl-2,3,4,9-tetrahydro-1H-pyrido[3,4-b]indol-7-yl)-2-oxo-1,2-dihydropyridine-3-carboxylic acid] | < 1 | 12.5 to 150 (≈ 31.6 to 379 µM) | < 1 | 3.5 to 12.5 (≈ 8.85 to 31.6 µM) | 3.5 to 12.5 (≈ 8.85 to 31.6 µM) | < 1 | 3.5 to 12.5 (≈ 8.85 to 31.6 µM) | 12.5 to 150 (≈ 31.6 to 379 µM) | 12.5 to 150 (≈ 31.6 to 379 µM)
4 | Cc1c(-c2ccc3c(c2)cc(CNCC(C)C)n3C)[nH]c(=O)c(C(=O)O)c1O [Cpd 353, 4-hydroxy-6-(2-((isobutylamino)methyl)-1-methyl-1H-indol-5-yl)-5-methyl-2-oxo-1,2-dihydropyridine-3-carboxylic acid] | < 1 | 12.5 to 150 (≈ 32.6 to 391 µM) | 3.5 to 12.5 (≈ 9.13 to 32.6 µM) | 1 to 3.5 (≈ 2.61 to 9.13 µM) | 3.5 to 12.5 (≈ 9.13 to 32.6 µM) | 3.5 to 12.5 (≈ 9.13 to 32.6 µM) | < 1 | 12.5 to 150 (≈ 32.6 to 391 µM) | 12.5 to 150 (≈ 32.6 to 391 µM)
5 | CCc1c(-c2ccc3c(ccn3-c3ccccn3)c2)[nH]c(=O)c(C(=O)O)c1O [Cpd 436, 5-ethyl-4-hydroxy-2-oxo-6-(1-(pyridin-2-yl)-1H-indol-5-yl)-1,2-dihydropyridine-3-carboxylic acid] | < 1 | 1 to 3.5 (≈ 2.66 to 9.32 µM) | 12.5 to 150 (≈ 33.3 to 400 µM) | 12.5 to 150 (≈ 33.3 to 400 µM) | 12.5 to 150 (≈ 33.3 to 400 µM) | 12.5 to 150 (≈ 33.3 to 400 µM) | 12.5 to 150 (≈ 33.3 to 400 µM) | 12.5 to 150 (≈ 33.3 to 400 µM) | 12.5 to 150 (≈ 33.3 to 400 µM)
6 | CCc1c(-c2cc3ccc(OC)cc3n2C)[nH]c(=O)c(C(=O)O)c1O [Cpd 405, 5-ethyl-4-hydroxy-6-(6-methoxy-1-methyl-1H-indol-2-yl)-2-oxo-1,2-dihydropyridine-3-carboxylic acid] | 3.5 to 12.5 (≈ 10.2 to 36.5 µM) | 3.5 to 12.5 (≈ 10.2 to 36.5 µM) | 12.5 to 150 (≈ 36.5 to 438 µM) | 12.5 to 150 (≈ 36.5 to 438 µM) | 12.5 to 150 (≈ 36.5 to 438 µM) | 12.5 to 150 (≈ 36.5 to 438 µM) | 12.5 to 150 (≈ 36.5 to 438 µM) | 12.5 to 150 (≈ 36.5 to 438 µM) | 12.5 to 150 (≈ 36.5 to 438 µM)
7 | CCNCc1c(F)c2cc(-c3[nH]c(=O)c(C(=O)O)c(O)c3CC)ccc2n1C [Cpd 369, 5-ethyl-6-(2-((ethylamino)methyl)-3-fluoro-1-methyl-1H-indol-5-yl)-4-hydroxy-2-oxo-1,2-dihydropyridine-3-carboxylic acid] | < 1 | 12.5 to 150 (≈ 32.3 to 387 µM) | 1 to 3.5 (≈ 2.58 to 9.03 µM) | 3.5 to 12.5 (≈ 9.03 to 32.3 µM) | 1 to 3.5 (≈ 2.58 to 9.03 µM) | < 1 | 3.5 to 12.5 (≈ 9.03 to 32.3 µM) | 12.5 to 150 (≈ 32.3 to 387 µM) | 12.5 to 150 (≈ 32.3 to 387 µM)
8 | CCc1c(-c2ccc3[nH]ncc3c2)[nH]c(=O)c(C(=O)O)c1O [Cpd 392, 5-ethyl-4-hydroxy-6-(1H-indazol-5-yl)-2-oxo-1,2-dihydropyridine-3-carboxylic acid] | 3.5 to 12.5 (≈ 11.7 to 41.8 µM) | 12.5 to 150 (≈ 41.8 to 501 µM) | 12.5 to 150 (≈ 41.8 to 501 µM) | 3.5 to 12.5 (≈ 11.7 to 41.8 µM) | 12.5 to 150 (≈ 41.8 to 501 µM) | 3.5 to 12.5 (≈ 11.7 to 41.8 µM) | 12.5 to 150 (≈ 41.8 to 501 µM) | 12.5 to 150 (≈ 41.8 to 501 µM) | 12.5 to 150 (≈ 41.8 to 501 µM)
9 | Cc1c(-c2ccc3cnn(C)c3c2)[nH]c(=O)c(C(=O)O)c1O [Cpd 396, 4-hydroxy-5-methyl-6-(1-methyl-1H-indazol-6-yl)-2-oxo-1,2-dihydropyridine-3-carboxylic acid] | 12.5 to 150 (≈ 41.8 to 501 µM) | 12.5 to 150 (≈ 41.8 to 501 µM) | 12.5 to 150 (≈ 41.8 to 501 µM) | 1 to 3.5 (≈ 3.34 to 11.7 µM) | 12.5 to 150 (≈ 41.8 to 501 µM) | 12.5 to 150 (≈ 41.8 to 501 µM) | 3.5 to 12.5 (≈ 11.7 to 41.8 µM) | 12.5 to 150 (≈ 41.8 to 501 µM) | 12.5 to 150 (≈ 41.8 to 501 µM)
